Source: patent publication US20090012144A1 (priority 2000, published 2009)
Values belong to the molecule of their own block, whether it stands above or below them.

Assays:
Tetranychus urticae = assay: Tetranychus test (OP-resistant/dip treatment); assay type: in vivo
Protocol: [table] To produce a suitable preparation of active compound, 1 part by weight of active compound is mixed with the stated amounts of solvent and emulsifier, and the concentrate is diluted with emulsifier-containing water to the desired concentration. Bean plants (Phaseolus vulgaris) which are heavily infested by all stages of the greenhouse […] spider mite (Tetranychus urticae) are dipped into the preparation of active compound of the desired concentration. After the desired period of time, the efficacy in % is determined. 100% means that all spider mites have been killed; 0% means that none of the spider mites have been killed.

[1] = log P determination by HPLC (reversed-phase C 18), EEC Directive 79/831 Annex V.A8; assay type: physicochemical; conditions: HPLC, pH 2.3, 43° C.; read-out: log P (pH 2.3)
Protocol: The log P values given in the tables and Preparation Examples above are determined in accordance with EEC Directive 79/831 Annex V.A8 by HPLC (High Performance Liquid Chromatography) using a reversed-phase column (C 18). Temperature: 43° C. […]
Calibration was carried out using unbranched alkan-2-ones (having 3 to 16 carbon atoms) with known log P values (determination of the log P values by the retention times using linear interpolation between two successive […]).

Heliothis armigera = Heliothis armigera test (soya bean shoots, dip); assay type: in vivo
Protocol: [table] To prepare a suitable preparation of active compound, 1 part by weight of active compound is mixed with the stated amounts of solvent and emulsifier, and the concentrate is diluted with emulsifier-containing water to the desired concentration. Soya bean shoots (Glycine max) are treated by being dipped into the preparation of active compound of the desired concentration and are populated with caterpillars of the cotton bollworm (Heliothis armigera) while the leaves are still moist. After the desired period of time, the kill in % is determined. 100% means that all caterpillars have been killed; 0% means that none of the caterpillars have been killed.

Heliothis virescens = Heliothis virescens test (soya bean shoots, dip); assay type: in vivo
Protocol: [table] To prepare a suitable preparation of active compound, 1 part by weight of active compound is mixed with the stated amounts of solvent and emulsifier, and the concentrate is diluted with emulsifier-containing water to the desired concentration. Soya bean shoots (Glycine max) are treated by being dipped into the preparation of active compound of the desired concentration and are populated with Heliothis virescens caterpillars while the leaves are still moist. After the desired period of time, the kill in % is determined. 100% means that all caterpillars have been killed; 0% means that none of the caterpillars have been killed.

[2] = system: Amblyomma hebraeum nymphs; assay: Amblyomma hebraeum (EH) polyphargous tick nymphs/dip treatment; assay type: in vivo; conditions: 10 ppm, 1 min immersion, after 4 weeks; 100% = no normal ecdysis
Protocol: [table] 20 mg of active compound are dissolved in 1 ml of dimethyl sulphoxide. To prepare a suitable formulation, the solution of active compound is diluted with water to the concentration desired in each case. 10 nymphs which have sucked themselves full are immersed for 1 min in the preparation of active compound to be tested. The animals are transferred to petri dishes (Ø 9.5 cm) fitted with filter paper discs and covered. After the nymphs have remained in a controlled-environment cabinet for 4 weeks, the ecdysis rate is determined. 100% means that none of the animals have undergone normal ecdysis. 0% means that all animals have undergone ecdysis.

[3] = system: Amblyomma hebraeum nymphs; assay: Amblyomma hebraeum (EH) tick nymphs/dip treatment, determination of the ED50; assay type: in vivo; conditions: 1 min immersion, ecdysis rate after 4 weeks; not determinable = 50% not reached at 1000 ppm
Protocol: [table] 20 mg of active compound are dissolved in 1 ml of dimethyl sulphoxide. To prepare a suitable preparation, the solution of active compound is diluted with water to the concentration desired in each case. For the determination of the ED50 value, a dose-activity curve with the concentration spectrum 1000, 300, 100, 30, 10, 3, 1, 0.3, 0.1, 0.03, 0.01 ppm is prepared. 10 nymphs which have sucked themselves full are immersed for 1 min into the preparation of active compound to be tested. The animals are transferred to petri dishes (Ø 9.5 cm) fitted with filter paper discs and covered. After the nymphs have remained in a controlled-environment cabinet for 4 weeks, the ecdysis rate is determined. 100% means that none of the animals have undergone normal ecdysis. 0% means that all animals have undergone ecdysis. The data are calculated by a 4-parameter logistic curve fit using XLfit (ID Business Solutions Ltd.). If at 1000 ppm 50% mortality has not been reached, the ED50 is judged to be not determinable.

SMILES: FC(F)=C(F)Oc1ccc(-c2ccc([C@H]3CCC(c4c(F)cccc4F)=N3)cc2)cc1
- Kill rate in % after 7 d (Tetranychus urticae; 0.01 ppm): 98%

SMILES: CC(C)(C)[Si](C)(C)Oc1ccc(-c2ccc([C@H]3CCC(c4c(F)cccc4F)=N3)cc2)cc1 [I-8, (2R)-2-(4′-{[tert-butyl(dimethyl)silyl]oxy}-1,1′-biphenyl-4-yl)-5-(2,6-difluorophenyl)-3,4-dihydro-2H-pyrrole]
- chromatographic logP [1]: 6.2
- melting point: 33 °C

- melting point: 217 °C
SMILES: OC1([C@H]2CCC(c3c(F)cccc3F)=N2)C=CC(c2ccccc2)=CC1 (stereo partly drawn) [I-9, 4′-[(2R)-5-(2,6-difluorophenyl)-3,4-dihydro-2H-pyrrol-2-yl]-1,1′-biphenyl-4′-ol]

- melting point: 146 to 148 °C
SMILES: [O-][S+](c1ccc(-c2ccc([C@H]3CCC(c4c(F)cccc4F)=N3)cc2)cc1)C(F)(F)F (some centres unmarked) [I-10]

- melting point: 148 to 150 °C
SMILES: O=S(=O)(c1ccc(-c2ccc([C@H]3CCC(c4c(F)cccc4F)=N3)cc2)cc1)C(F)F [I-14]

SMILES: Fc1cccc(F)c1C1=N[C@@H](c2ccc(-c3ccc(OC(F)(F)F)cc3)cc2)CC1 [drawing 59]
- Kill rate in % after 6 d (Heliothis armigera; 8 ppm): 100%

SMILES: Fc1cccc(F)c1C1=N[C@H](c2ccc(-c3ccc(OC(F)(F)F)cc3)cc2)CC1 [drawing 60, reference compound]
- Kill rate in % after 6 d (Heliothis armigera; 8 ppm): 0%

SMILES: Fc1cccc(F)c1C1=N[C@@H](c2ccc(-c3ccc(SC(F)(F)F)cc3)cc2)CC1 [drawing 61]
- Kill rate in % after 6 d (Heliothis armigera; 1.6 ppm): 100%

SMILES: Fc1cccc(F)c1C1=N[C@H](c2ccc(-c3ccc(SC(F)(F)F)cc3)cc2)CC1 [drawing 62, reference compound]
- Kill rate in % after 6 d (Heliothis armigera; 1.6 ppm): 0%

SMILES: Fc1cccc(F)c1C1=NC(c2ccc(-c3ccc(OC(F)(F)F)cc3)cc2)CC1 (centres unmarked) [drawing 63]
- Kill rate in % after 6 d (Heliothis virescens; 0.32 ppm): 20%

SMILES: Fc1cccc(F)c1C1=N[C@@H](c2ccc(-c3ccc(OC(F)(F)F)cc3)cc2)CC1 [drawing 64]
- Kill rate in % after 6 d (Heliothis virescens; 0.32 ppm): 90%

SMILES: Fc1cccc(F)c1C1=N[C@H](c2ccc(-c3ccc(OC(F)(F)F)cc3)cc2)CC1 [drawing 65]
- Kill rate in % after 6 d (Heliothis virescens; 8 ppm): 0%

SMILES: Fc1cccc(F)c1C1=N[C@@H](c2ccc(-c3ccc(SC(F)(F)F)cc3)cc2)CC1 [drawing 66]
- Kill rate in % after 6 d (Heliothis virescens; 1.6 ppm): 100%

SMILES: Fc1cccc(F)c1C1=N[C@H](c2ccc(-c3ccc(SC(F)(F)F)cc3)cc2)CC1 [drawing 67]
- Kill rate in % after 6 d (Heliothis virescens; 1.6 ppm): 15%

SMILES: CCOc1cc(C(C)(C)C)ccc1C1CCC(c2c(F)cccc2F)=N1 (centres unmarked) [drawing 97, reference compound]
- Kill rate in % after 7 d (Tetranychus urticae; 0.32 ppm): 0%

SMILES: CCOc1cc(C(C)(C)C)ccc1[C@H]1CCC(c2c(F)cccc2F)=N1 [drawing 98]
- Kill rate in % after 7 d (Tetranychus urticae; 0.32 ppm): 90%

SMILES: CCOc1cc(C(C)(C)C)ccc1[C@@H]1CCC(c2c(F)cccc2F)=N1 [drawing 99, reference compound]
- Kill rate in % after 7 d (Tetranychus urticae; 8 ppm): 0%

SMILES: Fc1cccc(F)c1C1=N[C@@H](c2ccc(-c3ccc(OC(F)(F)F)cc3)cc2)CC1 [drawing 100]
- Kill rate in % after 7 d (Tetranychus urticae; 0.0128 ppm): 95%

SMILES: Fc1cccc(F)c1C1=N[C@H](c2ccc(-c3ccc(OC(F)(F)F)cc3)cc2)CC1 [drawing 101, reference compound]
- Kill rate in % after 7 d (Tetranychus urticae; 0.0128 ppm): 0%

SMILES: CCOc1cc(C(C)(C)C)ccc1C1CCC(c2c(F)cccc2F)=N1 (centres unmarked) [drawing 103]
- Effects on ecdysis in % [2]: 100%

SMILES: CCOc1cc(C(C)(C)C)ccc1[C@H]1CCC(c2c(F)cccc2F)=N1 [drawing 104]
- Effects on ecdysis in % [2]: 100%

SMILES: CCOc1cc(C(C)(C)C)ccc1[C@@H]1CCC(c2c(F)cccc2F)=N1 [drawing 105]
- Effects on ecdysis in % [2]: 0%

SMILES: Fc1cccc(F)c1C1=NC(c2ccc(-c3ccc(OC(F)(F)F)cc3)cc2)CC1 (centres unmarked) [drawing 106]
- Effects on ecdysis in % [2]: 100%

SMILES: Fc1cccc(F)c1C1=N[C@@H](c2ccc(-c3ccc(OC(F)(F)F)cc3)cc2)CC1 [drawing 107]
- Effects on ecdysis in % [2]: 100%

SMILES: Fc1cccc(F)c1C1=N[C@H](c2ccc(-c3ccc(OC(F)(F)F)cc3)cc2)CC1 [drawing 108]
- Effects on ecdysis in % [2]: 0%

SMILES: CCOc1cc(C(C)(C)C)ccc1C1CCC(c2c(F)cccc2F)=N1 (centres unmarked) [drawing 109]
- ED 50 (ppm) [3]: 0.27 ppm

SMILES: CCOc1cc(C(C)(C)C)ccc1[C@H]1CCC(c2c(F)cccc2F)=N1 [drawing 110]
- ED 50 (ppm) [3]: 0.14 ppm

SMILES: CCOc1cc(C(C)(C)C)ccc1[C@@H]1CCC(c2c(F)cccc2F)=N1 [drawing 111]
- ED 50 (ppm) [3]: notdeterminable

SMILES: Fc1cccc(F)c1C1=NC(c2ccc(-c3ccc(OC(F)(F)F)cc3)cc2)CC1 (centres unmarked) [drawing 112]
- ED 50 (ppm) [3]: 0.58 ppm

SMILES: Fc1cccc(F)c1C1=N[C@@H](c2ccc(-c3ccc(OC(F)(F)F)cc3)cc2)CC1 [drawing 113]
- ED 50 (ppm) [3]: 0.20 ppm

SMILES: Fc1cccc(F)c1C1=N[C@H](c2ccc(-c3ccc(OC(F)(F)F)cc3)cc2)CC1 [drawing 114]
- ED 50 (ppm) [3]: 549.86 ppm
